In US6986881B1, “Identification of compounds that modify transcriptional responses to hypoxia” (Dana-Farber Cancer Institute, Inc., priority 1999, dated 2006):
No end group written: not given here.

Key:
[1] = tested on: Hep3B cells, Epo-luciferase reporter; test: Epo-luciferase hypoxia-inducible reporter assay; assay type: cell-based; settings: overproduction of polypeptide; 1% oxygen 18 hours
Description: FIG. 2A is a graph showing the results of luciferase and β-galactosidase assays, in which Hep3B cells were cotransfected with an Epo-luciferase reporter (100 ng), pCMV-LacZ (100 ng), and the indicated expression plasmids (300 ng). Cells were subsequently exposed to either ambient (Normoxia, stippled bars) or 1% (Hypoxia, solid bars) oxygen for 18 hours prior to assay. The results are expressed as corrected relative light units (RLU, mean of three independent transfections ±S.D.).
(§1) Reporter assays. Luciferase and β-galactosidase assays were performed as previously described (Bhattacharya et al., Genes Dev. 13:64–75, 1999). In all cases, luciferase activity was corrected for β-galactosidase activity as an internal control for transfection efficiency and global changes in transcriptional activity. Results are expressed as corrected relative light units (RLU). For each reporter experiment, at least two independent experiments were performed.
(§2) Hypoxia. Hypoxia was achieved by incubating cells in a humidified environment at 37° C. in a Cellstar three gas incubator (Harris) maintained at 10% CO2 and 1% O2. Accurate O2 and CO2 regulation was periodically verified with a Fryrite gas analyzer (Bacharach).

[2] = tested on: HCT116 cells; test: Nude mouse xenograft tumor model, HCT116; assay type: in vivo, nude mice; settings: for histological examination of the injection site / tumor: HCT116, 3 weeks of growth
Excerpt: FIG. 3A is a graph showing the in vivo effect of TADC expression. HCT116 cells were infected at an MOI of 5 with retroviruses encoding Gal4 alone (circle), Gal4 fused with mutant TAD-C polypeptide (Gal4-MUT, square) or with wild type TAD-C polypeptide (triangle). A total of 4×10^6 cells were implanted subcutaneously into nude mice. The results are expressed as the mean ±S.D. of 8–10 independent tumors.
FIGS. 4A and 4B are a series of photographs showing that the in vivo effect of TAD-C expression can be rescued by a CH1-independent HIF-1α allele. Tumors arising from HCT116 cells infected with retrovirus encoding Gal4 fused with mutant (MUT) or wild type TAD-C polypeptide at an MOI of 5 were excised after 3 weeks of growth. Paraffin sections were stained with H&E or immunostained for Gal4 or CD31/PECAM. The subcutaneous tissue (SQ), tumor (Tum), and necrotic areas (Nec) are indicated.
FIG. 4C is a graph showing the results of experiments in which HCT116 cells were infected with either pBABE-puro-VP16 (VP16) or pBABE-puro-HIF-VP16 (HIFVP), and selected with puromycin. These cells were then infected with retrovirus encoding either Gal4-MUT or Gal4-TADC at an MOI of 5. A total of 6×10^6 cells were implanted in nude mice. Results are the mean of 8 independent tumors ±S.D.
(§3) Cell culture and retroviral infection. Tumor cell lines were obtained from the ATCC, and were cultured in DMEM supplemented with 10% FBS, penicillin, streptomycin, and L-glutamine (Gibco-BRL). Cells in logarithmic growth phase were serially infected 12 hours apart with VSV-G pseudotyped pMMP-Gal4 retroviruses to achieve a final MOI of 5 or 10, depending on the experiment. […] For pBABE-puro-VP16 or pBABE-puro-HIF-VP16, cells were infected at an MOI of <1 and selected with puromycin (2 μg/ml) for 4 days. Cells were allowed to recover for 1 day and then infected at an MOI of 5 with pMMP-Gal4 retroviruses.
Xenograft tumor model. Nude mice (Taconic) were obtained at 6–8 weeks of age and allowed to acclimate for 1 week prior to tumor implantation. Tumor cells were allowed to recover for at least 48 hours after retroviral infection prior to implantation into nude mice. The indicated number of tumor cells was injected subcutaneously and bilaterally into the flanks of mice. Tumors were measured with calipers, and tumor volume was calculated as 0.5×L×W^2. For each cell line, at least two independent experiments were performed. Where indicated, tumors were excised and fixed in 4% paraformaldehyde in phosphate buffered saline or minced and lysed in RIPA/300 buffer (50 mM Tris-HCl (pH 8.0), 300 mM NaCl, 1% NP40, 0.5% DOC, 0.1% SDS, 1 mM DTT, protease inhibitors). Immunostaining with anti-Gal4 (IKE, Santa Cruz Biotechnology) or anti-CD31 (MEC13.3, Pharmingen) was performed using the Vectastain ABC Elite system (Vector) according to the manufacturer's instructions.

[3] = tested on: MDA-MB435S cells; test: Nude mouse xenograft tumor model, MDA-MB435S; assay type: in vivo, nude mice; settings: MDA-MB435S cells expressing the polypeptide, versus Gal4 alone or Gal4-mutant
Description: FIG. 3B is a graph showing results of the experiments described in reference to FIG. 3A for MDA-MB435S cells.
as §3
Xenograft tumor model. Nude mice (Taconic) were obtained at 6–8 weeks of age and allowed to acclimate for 1 week prior to tumor implantation. Tumor cells were allowed to recover for at least 48 hours after retroviral infection prior to implantation into nude mice. The indicated number of tumor cells was injected subcutaneously and bilaterally into the flanks of mice. Tumors were measured with calipers, and tumor volume was calculated as 0.5×L×W^2. For each cell line, at least two independent experiments were performed. […]

[4] = tested on: SRC-1; test: Gal4-luciferase reporter, p300/CBP dependent transactivation (Gal4-SRC1); assay type: cell-based; settings: TAD-C polypeptide overexpression, Hep3B cells
Description: (§4) FIG. 2B is a graph showing the effect of TAD-C expression on p300/CBP dependent transactivation. Hep3B cells were cotransfected with the indicated thioredoxin-constrained fusion protein expression plasmids (300 ng), the indicated Gal4-fusion proteins (20 ng), Gal4-luciferase reporter (100 ng), and pCMV-LacZ (50 ng). Where indicated, cells were exposed to hypoxia for 18 hours. The results are expressed as corrected RLU (mean of three independent transfections ±S.D.).
as §1

[5] = tested on: RAR; test: Gal4-luciferase reporter, p300/CBP dependent transactivation (Gal4-RAR); assay type: cell-based; settings: TAD-C polypeptide overexpression, Hep3B cells
Description: as §4, §1

[6] = tested on: VEGF mRNA in HepG2 cells; test: Ribonuclease protection assay for VEGF mRNA; assay type: cell-based; settings: HepG2, retrovirus MOI 10, both normoxic and hypoxic conditions
Description: In this assay, HepG2 cells were infected at an MOI of 10 with retroviruses encoding Gal4 alone or Gal4 fused with wild type or mutant (MUT) TAD-C polypeptide. Cells were exposed to either ambient or 1% (Hypoxia) oxygen for 18 hours prior to preparation of total RNA.
To facilitate expression of the relevant TAD-C and mutant polypeptides, VSV-G pseudotyped retroviruses were engineered to express Gal14 carrier protein alone or Gal4 fused to either wild type or mutant TAD-C polypeptide. HepG2 cells were infected with these retroviruses at a multiplicity of infection (MOI) of 10, exposed to either normal or hypoxic conditions, and VEGF mRNA levels were determined by a ribonuclease protection assay. Equivalent expression of Gal4 and the Gal4 fused polypeptides was regularly achieved in this and related experiments (for example, see FIG. 3A, inset). […] The overall abundance of HIF-1α under hypoxic conditions was not altered by introduction of TAD-C.
Hypoxia. Hypoxia was achieved by incubating cells in a humidified environment at 37° C. in a Cellstar three gas incubator (Harris) maintained at 10% CO2 and 1% O2. […]
Immunoblot, ribonzuclease protection, and cell death assays. […] Cell death was measured by staining with anti-Annexin V antibody (Pharmingen) and 7-amino-actinomycin D (Pharmingen), and analyzed by flow cytometry according to the manufacturer's instructions.

[7] = tested on: HepG2 cells; test: Cell death by flow cytometry (Annexin V staining and vital dye exclusion); assay type: cell-based; settings: for cell survival: versus Gal4 alone
Description: FIG. 2D is a graph showing the levels of cell death in an experiment in which HepG2 cells were infected at an MOI of 5 with retrovirus encoding the indicated Gal4 fusion proteins. Cells were exposed to either ambient or 1% oxygen for 36 hours, and then assayed for cell death by flow cytometric analysis using Annexin V staining and vital dye exclusion. The results are expressed as the mean of three independent experiments ±S.E.M. The asterisk denotes statistical significance (p=0.05) in comparison to controls.
as §2, §3
(§5) Immunoblot, ribonzuclease protection, and cell death assays. Immunoblot analyses for Gal4 (RK5C1, Santa Cruz Biotechnology), p53 (DO-1, Oncogene Research), and HIF-1α (OZ15 (Arany et al., Proc. Natl. Acad. Sci. U.S.A. 93:12969–12973, 1996)) were performed using standard techniques (Ausubel et al., Eds., Current Protocols in Molecular Biology (Wiley-Interscience, New York, 1988)). Total RNA was isolated (RNeasy, Qiagen), and ribonuclease protection assays performed utilizing a multiprobe human angiogenesis kit (RiboQuant, Pharmingen) according to the manufacturer's instructions. Cell death was measured by staining with anti-Annexin V antibody (Pharmingen) and 7-amino-actinomycin D (Pharmingen), and analyzed by flow cytometry according to the manufacturer's instructions.

[8] = tested on: STAT2; test: Gal4-luciferase reporter, p300/CBP dependent transactivation (Gal4-STAT2); assay type: cell-based; settings: TAD-C polypeptide overexpression, Hep3B cells
Description: as §4, §1

[9] = molecular target: T1, GST-CH1 (amino acids 302–443 of p300) (Homo sapiens, UniProt Q09472); test: In vitro protein binding assay of IVT Gal4-fused HIF-1α fragments to GST-CH1; settings: Gal4 fusion, translated in vitro
T1 construct: made in house; host or cells: bacteria
T1 sequence (Q09472 302-443): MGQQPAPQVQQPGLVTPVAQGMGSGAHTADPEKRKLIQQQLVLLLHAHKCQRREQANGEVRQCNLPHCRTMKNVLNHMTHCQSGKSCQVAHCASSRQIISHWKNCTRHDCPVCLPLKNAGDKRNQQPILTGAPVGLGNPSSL
Excerpt: One fifth of the total IVT product used for each binding assay is indicated (Input), along with the amount bound by GST-CH1 (Bound).
The detailed structural requirements for p300/CBP binding to HIF-1α were mapped by in vitro assays utilizing a series of GST-fused deletion mutants centered around the CH1 domain of p300, the primary HIF-1α interacting unit of that protein (Arany et al., Proc. Natl. Acad. Sci. U.S.A. 93:12969–12973, 1996; Kallio et al., EMBO J. 17:6573–6586, 1998). These mutant fusion proteins were assayed for binding to full length, iii vitro translated HIF-1α a zinc-dependent process (FIG. 1B). […] To map the minimal p300-binding domain of HIF-1α, a series of Gal4-fused truncation mutants of the C-terminus were generated. These Gal4 fusion proteins were translated in vitro and probed for their ability to bind to GST-CH1 (amino acids 302–443).
In vitro translation and in vitro protein binding assays. Except where noted, all reagents were from Sigma. In vitro transcription/translation (IVT) was performed in the presence of ^35S-methionine (NEN) using T3 or T7 polymerase coupled with rabbit reticulocyte lysates (TNT, Promega) according to the manufacturer's instructions. GST fusion proteins were produced in, and purified from, bacteria, and binding of IVT proteins was performed as previously described (Grossman et al., Mol. Cell. 2:405–415, 1998). […]

[10] = tested on: HIF-1α; test: Immunoblot for HIF-1α abundance; assay type: cell-based; settings: hypoxic conditions
Description: as §5

[11] = tested on: SREBP2; test: Gal4-luciferase reporter, p300/CBP dependent transactivation (Gal4-SREBP2); assay type: cell-based; settings: TAD-C polypeptide overexpression, Hep3B cells
Description: as §4, §1

[12] = molecular target: HIF-1α/p300 CH1 interaction (Homo sapiens, UniProt Q09472); settings: cited from earlier work
Chain of HIF-1α/p300 CH1 interaction (Q09472 whole entry): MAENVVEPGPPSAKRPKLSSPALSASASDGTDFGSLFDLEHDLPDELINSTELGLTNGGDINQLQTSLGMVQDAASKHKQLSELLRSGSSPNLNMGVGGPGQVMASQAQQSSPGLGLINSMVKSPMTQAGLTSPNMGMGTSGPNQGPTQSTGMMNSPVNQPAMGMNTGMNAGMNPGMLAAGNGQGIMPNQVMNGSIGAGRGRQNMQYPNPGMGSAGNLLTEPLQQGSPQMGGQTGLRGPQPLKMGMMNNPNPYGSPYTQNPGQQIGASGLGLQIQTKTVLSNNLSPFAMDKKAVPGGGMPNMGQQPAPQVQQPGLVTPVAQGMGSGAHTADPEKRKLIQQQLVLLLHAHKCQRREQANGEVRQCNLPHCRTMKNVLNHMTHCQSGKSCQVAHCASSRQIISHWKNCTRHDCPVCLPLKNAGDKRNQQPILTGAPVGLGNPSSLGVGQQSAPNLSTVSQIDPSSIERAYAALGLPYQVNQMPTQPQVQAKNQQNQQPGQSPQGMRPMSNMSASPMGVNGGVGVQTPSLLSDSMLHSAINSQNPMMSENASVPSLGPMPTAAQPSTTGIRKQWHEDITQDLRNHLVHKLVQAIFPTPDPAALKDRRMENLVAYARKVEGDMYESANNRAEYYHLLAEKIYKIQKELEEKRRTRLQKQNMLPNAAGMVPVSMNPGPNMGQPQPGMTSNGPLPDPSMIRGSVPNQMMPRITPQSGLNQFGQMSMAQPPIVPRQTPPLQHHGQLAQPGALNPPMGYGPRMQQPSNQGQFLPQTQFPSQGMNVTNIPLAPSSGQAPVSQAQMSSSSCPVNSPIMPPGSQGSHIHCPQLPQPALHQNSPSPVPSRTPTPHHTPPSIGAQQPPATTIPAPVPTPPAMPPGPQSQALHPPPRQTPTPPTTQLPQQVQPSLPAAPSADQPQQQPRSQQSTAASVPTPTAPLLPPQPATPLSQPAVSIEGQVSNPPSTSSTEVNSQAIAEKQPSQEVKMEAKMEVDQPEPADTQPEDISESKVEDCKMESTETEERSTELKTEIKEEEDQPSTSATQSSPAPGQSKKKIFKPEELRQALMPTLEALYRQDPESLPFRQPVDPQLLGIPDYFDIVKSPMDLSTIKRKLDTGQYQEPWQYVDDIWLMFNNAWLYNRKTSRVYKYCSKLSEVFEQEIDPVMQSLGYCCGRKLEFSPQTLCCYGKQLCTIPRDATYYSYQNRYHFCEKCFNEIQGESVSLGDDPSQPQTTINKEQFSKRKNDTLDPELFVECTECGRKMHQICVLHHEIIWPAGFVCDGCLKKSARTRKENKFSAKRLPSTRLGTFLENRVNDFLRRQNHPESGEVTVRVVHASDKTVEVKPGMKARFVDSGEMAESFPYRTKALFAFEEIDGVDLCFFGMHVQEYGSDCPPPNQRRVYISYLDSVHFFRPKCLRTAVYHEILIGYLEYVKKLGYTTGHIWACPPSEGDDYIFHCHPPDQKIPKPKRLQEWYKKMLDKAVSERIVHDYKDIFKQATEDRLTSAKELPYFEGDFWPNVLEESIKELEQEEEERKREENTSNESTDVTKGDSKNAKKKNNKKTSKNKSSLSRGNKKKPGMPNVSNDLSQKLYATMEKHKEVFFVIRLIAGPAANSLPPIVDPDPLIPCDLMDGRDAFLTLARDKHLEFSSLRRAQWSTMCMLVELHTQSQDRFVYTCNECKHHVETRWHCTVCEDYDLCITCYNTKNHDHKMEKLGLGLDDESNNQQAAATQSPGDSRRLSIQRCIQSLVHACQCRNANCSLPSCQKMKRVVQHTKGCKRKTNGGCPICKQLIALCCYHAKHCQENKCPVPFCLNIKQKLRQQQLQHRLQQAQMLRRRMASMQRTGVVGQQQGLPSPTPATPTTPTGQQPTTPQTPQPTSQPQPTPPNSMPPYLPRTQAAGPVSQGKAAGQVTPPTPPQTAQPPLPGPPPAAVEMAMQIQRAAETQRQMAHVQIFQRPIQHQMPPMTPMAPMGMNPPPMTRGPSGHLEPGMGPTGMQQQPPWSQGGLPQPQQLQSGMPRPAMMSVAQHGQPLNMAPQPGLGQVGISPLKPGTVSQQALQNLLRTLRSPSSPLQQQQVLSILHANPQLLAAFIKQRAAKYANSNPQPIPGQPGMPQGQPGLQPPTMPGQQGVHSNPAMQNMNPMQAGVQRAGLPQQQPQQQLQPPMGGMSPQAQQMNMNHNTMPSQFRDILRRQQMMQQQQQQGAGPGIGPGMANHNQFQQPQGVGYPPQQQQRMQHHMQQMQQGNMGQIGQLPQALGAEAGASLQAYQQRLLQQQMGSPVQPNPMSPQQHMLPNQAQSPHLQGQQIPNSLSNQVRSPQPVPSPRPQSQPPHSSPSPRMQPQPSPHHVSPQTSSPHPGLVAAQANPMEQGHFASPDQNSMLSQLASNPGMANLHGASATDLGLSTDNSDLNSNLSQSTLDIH

In the case of “CH1: polypeptide corresponding to the minimal HIF-1α binding domain of p300 (CH1 domain, amino acids 302–418)”, the hypoxia-inducible reporter activity [1] is reported as “attenuation”.

With “TAD-C polypeptide: wild type TAD-C polypeptide (amino acids 786–826 of HIF-1α), expressed fused to Gal4 or thioredoxin-constrained” the “histological examination of the injection site / tumor” value [2] was “large areas of central necrosis with a small rim of viable tumor cells”, the tumor growth ([2]; HCT116, coexpression of HIF-VP16, TAD-C versus mutant polypeptide) was “identical tumor growth” and the tumor growth ([2]; HCT116, coexpression of unfused VP16, versus mutant polypeptide) was “attenuated”. For the same molecule, the tumor growth ([2]; HCT116 cells expressing the polypeptide, versus Gal4 alone or Gal4-mutant) was “significantly and reproducibly attenuated”, the hypoxia-inducible reporter activity [1] was “attenuation” and the tumor growth [3] was “significantly and reproducibly attenuated”. The “effect on SRC-1 transcriptional activity” value [4] was “no effect”, the “effect on RAR transcriptional activity” value [5] was “no effect” and the “VEGF mRNA abundance” value [6] was “reproducibly diminished”. The cell death ([7]; HepG2, hypoxic conditions (1% oxygen, 36 hours), versus Gal4 alone or mutant) was “slightly, but significantly, increased”, the cell growth ([7]; HepG2, normoxic conditions) was “not affected” and the cell survival ([7]; HepG2, normoxic conditions) was “essentially the same”. For the same molecule, the “transcriptional activity of STAT2” value [8] was “inhibit”, the “binding to GST-CH1” value [9] was “necessary and sufficient for binding” and the “overall abundance of HIF-1α” value [10] was “not altered”. For the same molecule, the “effect on SREBP2 transcriptional activity” value [11] was “no effect”.

For “mutant TAD-C polypeptide: eight residue truncated mutant of TAD-C (amino acids 786–818 of HIF-1α), unable to bind GST-CH1 (SMDESGLPQLTSYDCEVNAPIQGSRNLLQGEEL; also: fused to Gal4; UniProt Q16665 786-818, looked up, fragment)”, the “histological examination of the injection site / tumor” value [2] was “small areas of necrosis, but vast areas of viable tumor”, the hypoxia-inducible reporter activity [1] was “failed to exert a dominant-negative effect” and the cell survival ([7]; HepG2, normoxic conditions) was “essentially the same”. The “binding to GST-CH1” value [9] was “unable to bind”.

B1: p35srj: protein with negative regulatory function on the HIF-1 pathway; binds p300/CBP, blocks HIF-1α/p300 CH1 interaction (protein, UniProt Q99967 1-270, looked up)
Cbp/p300-interacting …: MADHMMAMNHGRFPDGTNGLHHHPAHRMGMGQFPSPHHHQQQQPQHAFNALMGEHIHYGAGNMNATSGIRHAMGPGTVNGGHPPSALAPAARFNNSQFMGPPVASQGGSLPASMQLQKLNNQYFNHHPYPHNHYMPDLHPAAGHQMNGTNQHFRDCNPKHSGGSSTPGGSGGSSTPGGSGSSSGGGAGSSNSGGGSGSGNMPASVAHVPAAMLPPNVIDTDFIDEEVLMSLVIEMGLDRIKELPELWLGQNEFDFMTDFVCKQQPSRVSC
In the case of B1, the HIF-1 transactivation [12] is given as “inhibits”.
